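GI50 marks 50% less growth. Definition used: TGI = concentration required for complete inhibition of growth.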
How the values were obtained:
Test in all cases: NCI tumour cell line growth inhibition, 384-well format
NCI/ADR-RES ovarian = system: NCI/ADR-RES ovarian
NCI-H226 lung = system: NCI-H226 lung
COLO 205 colon = system: COLO 205 colon
KM12 colon = system: KM12 colon
HCT-116 colon = system: HCT-116 colon
BT-549 breast = system: BT-549 breast
HCC-2998 colon = system: HCC-2998 colon
OVCAR-8 ovarian = system: OVCAR-8 ovarian
M14 melanoma = system: M14 melanoma
MOLT-4 leukemia = system: MOLT-4 leukemia
CCRF-CEM leukemia = system: CCRF-CEM leukemia
UACC-257 melanoma = system: UACC-257 melanoma
MDA-MB-435 melanoma = system: MDA-MB-435 melanoma
SK-MEL-28 melanoma = system: SK-MEL-28 melanoma
LOX IMVI melanoma = system: LOX IMVI melanoma
OVCAR-4 ovarian = system: OVCAR-4 ovarian
HCT-15 colon = system: HCT-15 colon
DU-145 prostate = system: DU-145 prostate
SN12C renal = system: SN12C renal
SF-268 CNS = system: SF-268 CNS
NCI-H23 lung = system: NCI-H23 lung
SK-MEL-5 melanoma = system: SK-MEL-5 melanoma
SW-620 colon = system: SW-620 colon
SK-OV-3 ovarian = system: SK-OV-3 ovarian
RPMI-8226 leukemia = system: RPMI-8226 leukemia
SNB-19 CNS = system: SNB-19 CNS
SF-295 CNS = system: SF-295 CNS
ACHN renal = system: ACHN renal
UACC-62 melanoma = system: UACC-62 melanoma
NCI-H522 lung = system: NCI-H522 lung
OVCAR-3 ovarian = system: OVCAR-3 ovarian
HS 578T breast = system: HS 578T breast
SNB-75 CNS = system: SNB-75 CNS
MDA-MB-468 breast = system: MDA-MB-468 breast
MALME-3M melanoma = system: MALME-3M melanoma
U251 glioblastoma = system: U251 glioblastoma
NCI-H460 NSCLC = system: NCI-H460 NSCLC
EKVX NSCLC = system: EKVX NSCLC
UO-31 renal = system: UO-31 renal
MCF7 breast = system: MCF7 breast
HOP-92 NSCLC = system: HOP-92 NSCLC
SR leukemia = system: SR leukemia
K-562 leukemia = system: K-562 leukemia
A549 NSCLC = system: A549 NSCLC
RXF 393 renal = system: RXF 393 renal
MDA-MB-231 breast = system: MDA-MB-231 breast
CAKI-1 renal = system: CAKI-1 renal
NCI-H322M lung = system: NCI-H322M lung
SF-539 CNS = system: SF-539 CNS
T-47D breast = system: T-47D breast
786-0 renal = system: 786-0 renal
HOP-62 NSCLC = system: HOP-62 NSCLC
A498 renal = system: A498 renal
IGROV1 ovarian = system: IGROV1 ovarian
TK-10 renal = system: TK-10 renal
HT29 colon = system: HT29 colon

Structure (SMILES): CCCCS(=O)c1sc2nc(-c3cccs3)cc(-c3ccccc3)c2c1N (configuration not stated)
- GI50 (NCI/ADR-RES ovarian): 14 µM
- TGI (NCI/ADR-RES ovarian): 59 µM
- GI50 (NCI-H226 lung): 25.7 µM
- TGI (NCI-H226 lung): 74.6 µM
- GI50 (COLO 205 colon): 34.4 µM
- TGI (COLO 205 colon): > 100 µM
- GI50 (KM12 colon): > 100 µM
- TGI (KM12 colon): > 100 µM
- GI50 (HCT-116 colon): 26 µM
- TGI (HCT-116 colon): 91 µM
- GI50 (BT-549 breast): 16.5 µM
- TGI (BT-549 breast): 45.6 µM
- GI50 (HCC-2998 colon): 27.2 µM
- TGI (HCC-2998 colon): 63.3 µM
- GI50 (OVCAR-8 ovarian): 25.2 µM
- TGI (OVCAR-8 ovarian): > 100 µM
- GI50 (M14 melanoma): > 100 µM
- TGI (M14 melanoma): > 100 µM
- GI50 (MOLT-4 leukemia): 6.07 µM
- TGI (MOLT-4 leukemia): 18.1 µM
- GI50 (CCRF-CEM leukemia): 11.4 µM
- TGI (CCRF-CEM leukemia): 28.3 µM
- GI50 (UACC-257 melanoma): 26.9 µM
- TGI (UACC-257 melanoma): 84.1 µM
- GI50 (MDA-MB-435 melanoma): 36.1 µM
- TGI (MDA-MB-435 melanoma): > 100 µM
- GI50 (SK-MEL-28 melanoma): > 100 µM
- TGI (SK-MEL-28 melanoma): > 100 µM
- GI50 (LOX IMVI melanoma): 16.7 µM
- TGI (LOX IMVI melanoma): 38.1 µM
- GI50 (OVCAR-4 ovarian): 30.4 µM
- TGI (OVCAR-4 ovarian): > 100 µM
- GI50 (HCT-15 colon): 19.1 µM
- TGI (HCT-15 colon): > 100 µM
- GI50 (DU-145 prostate): 28.7 µM
- TGI (DU-145 prostate): > 100 µM
- GI50 (SN12C renal): 65 µM
- TGI (SN12C renal): > 100 µM
- GI50 (SF-268 CNS): > 100 µM
- TGI (SF-268 CNS): > 100 µM
- GI50 (NCI-H23 lung): 21.4 µM
- TGI (NCI-H23 lung): 97.9 µM
- GI50 (SK-MEL-5 melanoma): 13.8 µM
- TGI (SK-MEL-5 melanoma): 26.8 µM
- GI50 (SW-620 colon): > 100 µM
- TGI (SW-620 colon): > 100 µM
- GI50 (SK-OV-3 ovarian): 31.9 µM
- TGI (SK-OV-3 ovarian): > 100 µM
- GI50 (RPMI-8226 leukemia): 4.38 µM
- TGI (RPMI-8226 leukemia): 14.6 µM
- GI50 (SNB-19 CNS): 32.5 µM
- TGI (SNB-19 CNS): > 100 µM
- GI50 (SF-295 CNS): 19.6 µM
- TGI (SF-295 CNS): 96.5 µM
- GI50 (ACHN renal): 31.7 µM
- TGI (ACHN renal): > 100 µM
- GI50 (UACC-62 melanoma): > 100 µM
- TGI (UACC-62 melanoma): > 100 µM
- GI50 (NCI-H522 lung): 17 µM
- TGI (NCI-H522 lung): 90.5 µM
- GI50 (OVCAR-3 ovarian): 16.7 µM
- TGI (OVCAR-3 ovarian): 43.5 µM
- GI50 (HS 578T breast): 14.1 µM
- TGI (HS 578T breast): 76.2 µM
- GI50 (SNB-75 CNS): 27.2 µM
- TGI (SNB-75 CNS): > 100 µM
- GI50 (MDA-MB-468 breast): 15 µM
- TGI (MDA-MB-468 breast): 42.7 µM
- GI50 (MALME-3M melanoma): 28.8 µM
- TGI (MALME-3M melanoma): 73.2 µM
- GI50 (U251 glioblastoma): 23.2 µM
- TGI (U251 glioblastoma): > 100 µM
- GI50 (NCI-H460 NSCLC): 13.7 µM
- TGI (NCI-H460 NSCLC): 32.4 µM
- GI50 (EKVX NSCLC): 27.8 µM
- TGI (EKVX NSCLC): > 100 µM
- GI50 (UO-31 renal): 29.2 µM
- TGI (UO-31 renal): > 100 µM
- GI50 (MCF7 breast): 13.5 µM
- TGI (MCF7 breast): 90.7 µM
- GI50 (HOP-92 NSCLC): 26.4 µM
- TGI (HOP-92 NSCLC): 99.2 µM
- GI50 (SR leukemia): 3.73 µM
- TGI (SR leukemia): 8.78 µM
- GI50 (K-562 leukemia): 8.47 µM
- TGI (K-562 leukemia): > 100 µM
- GI50 (A549 NSCLC): 12.5 µM
- TGI (A549 NSCLC): > 100 µM
- GI50 (RXF 393 renal): 20.4 µM
- TGI (RXF 393 renal): 95.5 µM
- GI50 (MDA-MB-231 breast): 25.7 µM
- TGI (MDA-MB-231 breast): > 100 µM
- GI50 (CAKI-1 renal): 31.9 µM
- TGI (CAKI-1 renal): > 100 µM
- GI50 (NCI-H322M lung): 32.2 µM
- TGI (NCI-H322M lung): > 100 µM
- GI50 (SF-539 CNS): 23.9 µM
- TGI (SF-539 CNS): 52.2 µM
- GI50 (T-47D breast): 19.2 µM
- TGI (T-47D breast): > 100 µM
- GI50 ([…]-0 renal): 27.9 µM
- TGI (786-0 renal): > 100 µM
- GI50 (HOP-62 NSCLC): 29.9 µM
- TGI (HOP-62 NSCLC): 93.8 µM
- GI50 (A498 renal): 21.2 µM
- TGI (A498 renal): 79.2 µM
- GI50 (IGROV1 ovarian): 38.6 µM
- TGI (IGROV1 ovarian): > 100 µM
- GI50 (TK-10 renal): 29.5 µM
- TGI (TK-10 renal): > 100 µM
- GI50 (HT29 colon): 26 µM
- TGI (HT29 colon): > 100 µM
